Measured values from patent US20140371237A1, “p19Arf, HMGA2 and MDM2 For Use in the Diagnosis and Treatment of Aberrant Cell Growth” (University of Bremen, priority 2010, published 2014).

Legend:
Type in all cases: cell-based, human
[1] = system: leiomyoma cells; test: Treatment of leiomyoma cells with RITA, qRT-PCR; conditions: cells of fibroids, 10 μM RITA, 72 h
Protocol: For treatment with RITA (Biomol, Hamburg, Germany) cells were plated in Leighton-tubes at a density of 200,000 on 10 mm×50 mm cover slips 24 h before incubation with RITA. Cells were treated with 1 μM and 10 μM RITA for 72 h. As controls cells were cultured in medium 199 supplemented with 20% FCS without RITA for 72 h. Relative quantification of transcription levels was carried out by real-time PCR analyses using the Applied Biosystems 7300 real-time PCR system (Applied Biosystems, Darmstadt, Germany). Commercially available gene expression assays (Applied Biosystems, Darmstadt, Germany) were used for quantification of mRNA of human BAX (Hs00180269_m1), p21 (Hs99999142), β-Gal (Hs01035162) and Ki67 (Hs00606991_m1). HPRT served as endogenous control. All qRT-PCR experiments were done in triplicate.

[2] = system: explants of fibroids and matching myometrium; test: Treatment of explants of fibroids and matching myometrium with RITA, qRT-PCR; conditions: explants in short term culture, RITA 10 μM, 72 h
Protocol: For the experiments explants from a leiomyoma with a clonal complex chromosomal rearrangement involving chromosome 10 along with matching myometrium were taken during surgery and immediately transferred into sterile Hank's solution. For treatment with RITA (Biomol, Hamburg, Germany) tissue samples were minced into small pieces of approximately 0.5 cm diameter and incubated in medium 199 supplemented with 20% FCS and RITA (10 μM) for 72 h. As controls tissue explants were incubated in medium 199 supplemented with 20% FCS without RITA for 72 h. Relative quantification of transcription levels was carried out by real-time PCR analyses using the Applied Biosystems 7300 real-time PCR system (Applied Biosystems, Darmstadt, Germany). Commercially available gene expression assays (Applied Biosystems, Darmstadt, Germany) were used for quantification of mRNA of human BAX (Hs00180269_m1), p21 (Hs99999142), β-Gal (Hs01035162) and Ki67 (Hs00606991_m1). HPRT served as endogenous control. All qRT-PCR experiments were done in triplicate.

[3] = system: leiomyoma cells; test: Treatment of leiomyoma cells with Tenovin-1, qRT-PCR of p21 and BAX
Protocol: For treatment with Tenovin-1 (Biomol, Hamburg, Germany) cells were plated in Leighton-tubes at a density of 200,000 on 10 mm×50 mm cover slips 24 h before incubation with Tenovin-1. Cells were treated with 3 μM and 10 μM Tenovin-1 for 24 and for 72 h, respectively. As controls cells were cultured in medium 199 supplemented with 20% FCS without Tenovin-1 for 24 and for 72 h, respectively.

| Structure (SMILES) | expression of BAX [1] | expression of Ki-67 [1] | expression of p21 [1] | expression of β-galactosidase [1] | expression of BAX [2] | expression of p21 [2] | expression of p21 ([3]; 3 μM and 10 μM, 24 h and 72 h, p<0.01 with both concentrations) | expression of BAX ([3]; significant at 24 h with 3 μM and 10 μM (p<0.001) and 72 h with 10 μM (p<0.01)) |
| --- | --- | --- | --- | --- | --- | --- | --- | --- |
| OCc1ccc(-c2ccc(-c3ccc(CO)s3)o2)s1 [RITA, 2,5-bis-(5-Hydroxymethyl-2-thienyl)-furan] | significant increase | decrease | significant increase | significant increase | significant increase | significant increase |  |  |
| CC(=O)Nc1ccc(NC(=S)NC(=O)c2ccc(C(C)(C)C)cc2)cc1 [Tenovin-1] |  |  |  |  |  |  | significant increase | significant increase |
